Assay results published in patent publication US9936622B2, “Apparatus for applying a pesticide to perennial crops” (Sumitomo Chemical Company, Limited, priority 2007, dated 2018).

What was measured:
[1] = test system: psyllids Creiis lituratus; assay: Field trial, subsurface application for the control of psyllids (lerp counts) on Eucalyptus dunni; format: in vivo; settings: for Mean lerp count per 5 terminal leaflets: subsurface application
Description: (§1) Near Casino, northern New South Wales, Australia in the 2006-2007 season, chlothianidin as a suspension (200 g/L) in water at 0.5, 1.0 and 1.5 grams of active ingredient per tree (gai/tree) was applied to 2 year old Eucalyptus dunni trees for the control of psyllids Creiis lituratus during winter and chrysomelid leaf beetles during summer.
(§2) A single application below the soil surface was made by coulter 20-40 cm from the base of the stem of the trees and to a depth of 10-15 cm in 128 L of water per hectare. Psyllid lerp counts were taken 141 and 303 DAT (days after treatment). Tree height was measured at treatment and then at 303 DAT. Diameter at breast height was measured at 303 DAT.

[2] = test system: 2 year old Eucalyptus dunni trees; assay: Field trial, effect of psyllid control on growth of E. dunni (tree height, diameter, wood volume); format: in vivo; settings: for Mean increase in tree height: 0-303 DAT
Description: as §1, §2
The difference in volume between the untreated and the 1 gai/tree treatment can be calculated over 303 days

CN/C(=N\[N+](=O)[O-])NCc1cnc(Cl)s1 [Clothianidin, clothianidin]
Mean lerp count per 5 terminal leaflets ([1]; 0.5 gai/tree, Mar. 19, 2007 (303 DAT)): 3.50 B
Mean lerp count per 5 terminal leaflets ([1]; 0.5 gai/tree, Oct. 7, 2006 (141 DAT)): 2.33 b
Mean lerp count per 5 terminal leaflets ([1]; 1 gai/tree, Mar. 19, 2007 (303 DAT)): 2.06 B
Mean lerp count per 5 terminal leaflets ([1]; 1 gai/tree, Oct. 7, 2006 (141 DAT)): 0.71 c
Mean lerp count per 5 terminal leaflets ([1]; 1.5 gai/tree, Mar. 19, 2007 (303 DAT)): 0.69 B
Mean lerp count per 5 terminal leaflets ([1]; 1.5 gai/tree, Oct. 7, 2006 (141 DAT)): 0.58 c
psyllid lerp counts ([1]; sub-surface application at 0.5 to 1.5 gai/tree, up to 303 DAT): significantly reduced
Mean increase in tree height ([2]; 0.5 gai/tree): 198 ab cm
DBM (diameter at breast height, 1.3 m above ground level) ([2]; 0.5 gai/tree, 303 DAT): 5.44 cm
Mean tree height ([2]; 0.5 gai/tree, 303 DAT): 500 bc cm
Mean increase in tree height ([2]; 1 gai/tree): 228 a cm
DBM (diameter at breast height, 1.3 m above ground level) ([2]; 1 gai/tree, 303 DAT): 5.91 cm
Mean tree height ([2]; 1 gai/tree, 303 DAT): 526 b cm
Increase in wood volume ([2]; 1 gai/tree, 303 DAT, versus untreated): 8.5 m^3/ha
Mean tree diameter ([2]; 1 gai/tree, over 303 days): 5.91 cm
Mean tree height ([2]; 1 gai/tree, over 303 days): 5.26 m
Mean wood vol/ha ([2]; 1 gai/tree, over 303 days): 22.2 m^3
Mean increase in tree height ([2]; 1.5 gai/tree): 229 a cm
DBM (diameter at breast height, 1.3 m above ground level) ([2]; 1.5 gai/tree, 303 DAT): 6.67 cm
Mean tree height ([2]; 1.5 gai/tree, 303 DAT): 594 a cm
growth of E. dunni ([2]; sub-surface application at 0.5 to 1.5 gai/tree, high psyllid pressure, up to 303 DAT): improved
